Measured values taken from US20080207573A1, “COMPOUNDS FOR TREATING VIRAL INFECTIONS” (priority 2006, published 2008).

Each compound was assayed on HIV-1 laboratory strain, NL4-3 (assay: MT-4 Cytoprotection Assay (protection from HIV-induced cytopathic effect, WST-1 readout)). Settings: Human immunodeficiency virus 1, NL43, MT4; Table 7; MT-4 cells, HIV-1 NL4-3; read-out: MT4 EC50.
Type: cell-based
Procedure: MT-4 Cytoprotection Assay
The HTLV-1 transformed T cell line, MT-4, is highly susceptible to HIV-1 infection. Anti-HIV-1 agents were evaluated in this target cell line by protection from the HIV-induced cytopathic effect. In this assay, viability of both HIV-1 and mock-infected cells was assessed in a […] assay that monitors the ability of metabolically-active cells to reduce the tetrazolium salt WST-1. Cytoprotection by antiviral compounds is indicated by the positive readout of increased WST-1 cleavage.
Briefly, exponentially growing MT-4 cells were mock-infected or batch-infected with the HIV-1 laboratory strain, NL4-3, at a multiplicity of infection of 0.0005. Following a two hour infection, the cells were washed to remove unbound virus and plated in the presence of increasing concentrations of compound. After four days incubation, cytoprotection in the infected cells and compound toxicity in mock-infected cells were analyzed using the WST-1 assay.
In the case of `C=C(C)[C@@H]1CC[C@]2(C(=O)NCc3cccnc3C(=O)O)CC[C@]3(C)C(CCC4[C@@]5(C)CCC(OC(=O)CC(C)(C)C(=O)O)C(C)(C)C5CC[C@]43C)C12` (some centres unmarked) [Compound 130], the EC50 is reported as 24 nM.
Work on `C=C(C)[C@@H]1CC[C@]2(C(=O)N[C@@H](C)c3cccc[n+]3[O-])CC[C@]3(C)C(CCC4[C@@]5(C)CCC(OC(=O)CC(C)(C)C(=O)O)C(C)(C)C5CC[C@]43C)C12` (some centres unmarked) [Compound 132] yielded an EC50 of 36 nM.
`C=C(C)[C@@H]1CC[C@]2(C(=O)NCc3ccc(F)cc3C(=O)O)CC[C@]3(C)C(CCC4[C@@]5(C)CCC(OC(=O)CC(C)(C)C(=O)O)C(C)(C)C5CC[C@]43C)C12` (some centres unmarked) [Compound 128] was tested, and the EC50 was 28 nM.
`C=C(C)[C@@H]1CC[C@]2(C(=O)NCc3ccc4cccc(O)c4n3)CC[C@]3(C)C(CCC4[C@@]5(C)CCC(OC(=O)CC(C)(C)C(=O)O)C(C)(C)C5CC[C@]43C)C12` (some centres unmarked) [Compound 131] gave an EC50 of 3 nM.
Compound `C=C(C)[C@@H]1CC[C@]2(C(=O)NCc3ccc(C(=O)O)s3)CC[C@]3(C)C(CCC4[C@@]5(C)CCC(OC(=O)CC(C)(C)C(=O)O)C(C)(C)C5CC[C@]43C)C12` (some centres unmarked) [Compound 129] has an EC50 of 371 nM.

Same assay, conditions: Human immunodeficiency virus 1, NL43; list of representative compounds; read-out: EC50 of less than about 100 nm (representative compounds)
`C=C(C)[C@@H]1CC[C@]2(C(=O)NCc3cc(OC)c(OC)c(OC)c3)CC[C@]3(C)[C@H](CC[C@@H]4[C@@]5(C)CC[C@H](OC(=O)CC(C)(C)C(=O)O)C(C)(C)[C@@H]5CC[C@]43C)[C@@H]12` [Compound 103] was tested, and the EC50 was < 100 nM.
With `C=C(C)[C@@H]1CC[C@]2(C(=O)NCc3nc4ccccc4n3C)CC[C@]3(C)[C@H](CC[C@@H]4[C@@]5(C)CC[C@H](OC(=O)CC(C)(C)C(=O)O)C(C)(C)[C@@H]5CC[C@]43C)[C@@H]12` [Compound 109] the EC50 was < 100 nM.
In the case of `C=C(C)[C@@H]1CC[C@]2(C(=O)NCc3cccc(OC)c3)CC[C@]3(C)[C@H](CC[C@@H]4[C@@]5(C)CC[C@H](OC(=O)CC(C)(C)C(=O)O)C(C)(C)[C@@H]5CC[C@]43C)[C@@H]12` [Compound 79], the EC50 is reported as < 100 nM.
`C=C(C)[C@@H]1CC[C@]2(C(=O)N[C@H](C)c3ccc(OC)cc3)CC[C@]3(C)[C@H](CC[C@@H]4[C@@]5(C)CC[C@H](OC(=O)CC(C)(C)C(=O)O)C(C)(C)[C@@H]5CC[C@]43C)[C@@H]12` [Compound 81] was tested, and the EC50 was < 100 nM.
`C=C(C)[C@@H]1CC[C@]2(C(=O)NCc3ccc(OC)cc3)CC[C@]3(C)[C@H](CC[C@@H]4[C@@]5(C)CC[C@H](OC(=O)CC(C)(C)C(=O)O)C(C)(C)[C@@H]5CC[C@]43C)[C@@H]12` [Compound 69] was tested, and the EC50 was < 100 nM.
In the case of `C=C(C)[C@@H]1CC[C@]2(C(=O)NCc3ccc(Cl)cc3)CC[C@]3(C)[C@H](CC[C@@H]4[C@@]5(C)CC[C@H](OC(=O)CC(C)(C)C(=O)O)C(C)(C)[C@@H]5CC[C@]43C)[C@@H]12` [Compound 80], the EC50 is reported as < 100 nM.
In the case of `C=C(C)[C@@H]1CC[C@]2(C(=O)NC(C)c3ccccn3)CC[C@]3(C)[C@H](CC[C@@H]4[C@@]5(C)CC[C@H](OC(=O)CC(C)(C)C(=O)O)C(C)(C)[C@@H]5CC[C@]43C)[C@@H]12` (some centres unmarked) [Compound 105], the EC50 is reported as < 100 nM.
With `C=C(C)[C@@H]1CC[C@]2(C(=O)NCCC3CCCCC3)CC[C@]3(C)[C@H](CC[C@@H]4[C@@]5(C)CC[C@H](OC(=O)CC(C)(C)C(=O)O)C(C)(C)[C@@H]5CC[C@]43C)[C@@H]12` [Compound 124] the EC50 was < 100 nM.
In the case of `C=C(C)[C@@H]1CC[C@]2(C(=O)NCCc3ccncc3)CC[C@]3(C)[C@H](CC[C@@H]4[C@@]5(C)CC[C@H](OC(=O)CC(C)(C)C(=O)O)C(C)(C)[C@@H]5CC[C@]43C)[C@@H]12` [Compound 91], the EC50 is reported as < 100 nM.
For `C=C(C)[C@@H]1CC[C@]2(C(=O)NCc3ccc4occc4c3)CC[C@]3(C)[C@H](CC[C@@H]4[C@@]5(C)CC[C@H](OC(=O)CC(C)(C)C(=O)O)C(C)(C)[C@@H]5CC[C@]43C)[C@@H]12` [Compound 87], the EC50 was < 100 nM.
In the case of `C=C(C)[C@@H]1CC[C@]2(C(=O)NCc3cccc(C)n3)CC[C@]3(C)[C@H](CC[C@@H]4[C@@]5(C)CC[C@H](OC(=O)CC(C)(C)C(=O)O)C(C)(C)[C@@H]5CC[C@]43C)[C@@H]12` [Compound 108], the EC50 is reported as < 100 nM.
With `C=C(C)[C@@H]1CC[C@]2(C(=O)NCc3ccncc3)CC[C@]3(C)[C@H](CC[C@@H]4[C@@]5(C)CC[C@H](OC(=O)CC(C)(C)C(=O)O)C(C)(C)[C@@H]5CC[C@]43C)[C@@H]12` [Compound 75] the EC50 was < 100 nM.
In the case of `C=C(C)[C@@H]1CC[C@]2(C(=O)NCCOc3ccc(OC)cc3)CC[C@]3(C)[C@H](CC[C@@H]4[C@@]5(C)CC[C@H](OC(=O)CC(C)(C)C(=O)O)C(C)(C)[C@@H]5CC[C@]43C)[C@@H]12` [Compound 97], the EC50 is reported as < 100 nM.
For `C=C(C)[C@@H]1CC[C@]2(C(=O)N[C@@H](C)c3ccc(OC)cc3)CC[C@]3(C)[C@H](CC[C@@H]4[C@@]5(C)CC[C@H](OC(=O)CC(C)(C)C(=O)O)C(C)(C)[C@@H]5CC[C@]43C)[C@@H]12` [Compound 117], the EC50 was < 100 nM.
With `C=C(C)[C@@H]1CC[C@]2(C(=O)NC(Cc3ccc(OC)cc3)C(=O)O)CC[C@]3(C)[C@H](CC[C@@H]4[C@@]5(C)CC[C@H](OC(=O)CC(C)(C)C(=O)O)C(C)(C)[C@@H]5CC[C@]43C)[C@@H]12` (some centres unmarked) [Compound 119] the EC50 was < 100 nM.
With `C=C(C)[C@@H]1CC[C@]2(C(=O)NCc3cc(C)ccn3)CC[C@]3(C)[C@H](CC[C@@H]4[C@@]5(C)CC[C@H](OC(=O)CC(C)(C)C(=O)O)C(C)(C)[C@@H]5CC[C@]43C)[C@@H]12` [Compound 112] the EC50 was < 100 nM.
`CC(C)[C@@H]1CC[C@]2(C(=O)NCc3ccccc3C(=O)O)CC[C@]3(C)[C@H](CC[C@@H]4[C@@]5(C)CC[C@H](OC(=O)CC(C)(C)C(=O)O)C(C)(C)[C@@H]5CC[C@]43C)[C@@H]12` [Compound 122] was tested, and the EC50 was < 100 nM.
With `C=C(C)[C@@H]1CC[C@]2(C(=O)NCc3ccc(Cl)cn3)CC[C@]3(C)[C@H](CC[C@@H]4[C@@]5(C)CC[C@H](OC(=O)CC(C)(C)C(=O)O)C(C)(C)[C@@H]5CC[C@]43C)[C@@H]12` [Compound 114] the EC50 was < 100 nM.
With `C=C(C)[C@@H]1CC[C@]2(C(=O)NCc3ncccc3C)CC[C@]3(C)[C@H](CC[C@@H]4[C@@]5(C)CC[C@H](OC(=O)CC(C)(C)C(=O)O)C(C)(C)[C@@H]5CC[C@]43C)[C@@H]12` [Compound 113] the EC50 was < 100 nM.
With `C=C(C)[C@@H]1CC[C@]2(C(=O)Nc3ccc(OC)cc3)CC[C@]3(C)[C@H](CC[C@@H]4[C@@]5(C)CC[C@H](OC(=O)CC(C)(C)C(=O)O)C(C)(C)[C@@H]5CC[C@]43C)[C@@H]12` [Compound 77] the EC50 was < 100 nM.
`C=C(C)[C@@H]1CC[C@]2(C(=O)NCCCc3ccc(OC)c(OC)c3)CC[C@]3(C)[C@H](CC[C@@H]4[C@@]5(C)CC[C@H](OC(=O)CC(C)(C)C(=O)O)C(C)(C)[C@@H]5CC[C@]43C)[C@@H]12` [Compound 102] was tested, and the EC50 was < 100 nM.
For `C=C(C)[C@@H]1CC[C@]2(C(=O)NCCc3cccc(OC)c3)CC[C@]3(C)[C@H](CC[C@@H]4[C@@]5(C)CC[C@H](OC(=O)CC(C)(C)C(=O)O)C(C)(C)[C@@H]5CC[C@]43C)[C@@H]12` [Compound 88], the EC50 was < 100 nM.
For `C=C(C)[C@@H]1CC[C@]2(C(=O)NCc3c(C)coc3C(F)(F)F)CC[C@]3(C)[C@H](CC[C@@H]4[C@@]5(C)CC[C@H](OC(=O)CC(C)(C)C(=O)O)C(C)(C)[C@@H]5CC[C@]43C)[C@@H]12` [Compound 101], the EC50 was < 100 nM.
With `C=C(C)[C@@H]1CC[C@]2(C(=O)NCc3ccc4c(c3)OCO4)CC[C@]3(C)[C@H](CC[C@@H]4[C@@]5(C)CC[C@H](OC(=O)CC(C)(C)C(=O)O)C(C)(C)[C@@H]5CC[C@]43C)[C@@H]12` [Compound 82] the EC50 was < 100 nM.
In the case of `C=C(C)[C@@H]1CC[C@]2(C(=O)NCc3ccc(N(C)C)cc3)CC[C@]3(C)[C@H](CC[C@@H]4[C@@]5(C)CC[C@H](OC(=O)CC(C)(C)C(=O)O)C(C)(C)[C@@H]5CC[C@]43C)[C@@H]12` [Compound 99], the EC50 is reported as < 100 nM.
In the case of `C=C(C)[C@@H]1CC[C@]2(C(=O)NCCc3ccc(C(=O)O)cc3)CC[C@]3(C)[C@H](CC[C@@H]4[C@@]5(C)CC[C@H](OC(=O)CC(C)(C)C(=O)O)C(C)(C)[C@@H]5CC[C@]43C)[C@@H]12` [Compound 100], the EC50 is reported as < 100 nM.

What follows are compounds tested on HIV-1IIIB (assay: PBMC Drug Susceptibility Assay (HIV-1 p24 in supernatant)). Settings: Human immunodeficiency virus 1, PBMC, 168 h; Table 7; HIV-1IIIB-infected human PBMCs, seven days.
Type: cell-based
From the text: PBMC Drug Susceptibility Assay
Human peripheral blood mononuclear cells (PBMCS) were used to test compound antiviral activity as an indicator for clinical efficacy. PBMCs were isolated from two donors using a Ficoll-Hypaque density gradient, pooled and stimulated with PHA-L for three days. After stimulation, the cells were washed and maintained in culture medium containing IL-2. The stimulated cells were then mock-infected or batch-infected with the strain HIV-1IIIB at MOI 0.01 for one hour. Cells (unwashed) were then plated in the presence of increasing concentrations of compound and incubated for seven days. […] Compound toxicity in mock-infected cells was analyzed using the WST-1 assay.
With `C=C(C)[C@@H]1CC[C@]2(C(=O)NCc3cccnc3C(=O)O)CC[C@]3(C)C(CCC4[C@@]5(C)CCC(OC(=O)CC(C)(C)C(=O)O)C(C)(C)C5CC[C@]43C)C12` (some centres unmarked) [Compound 130] the IC50 was 44 nM.
`C=C(C)[C@@H]1CC[C@]2(C(=O)N[C@@H](C)c3cccc[n+]3[O-])CC[C@]3(C)C(CCC4[C@@]5(C)CCC(OC(=O)CC(C)(C)C(=O)O)C(C)(C)C5CC[C@]43C)C12` (some centres unmarked) [Compound 132] was tested, and the IC50 was 44 nM.
`C=C(C)[C@@H]1CC[C@]2(C(=O)NCc3ccc(F)cc3C(=O)O)CC[C@]3(C)C(CCC4[C@@]5(C)CCC(OC(=O)CC(C)(C)C(=O)O)C(C)(C)C5CC[C@]43C)C12` (some centres unmarked) [Compound 128] showed an IC50 of 3.6 nM.
Work on `C=C(C)[C@@H]1CC[C@]2(C(=O)NCc3ccc4cccc(O)c4n3)CC[C@]3(C)C(CCC4[C@@]5(C)CCC(OC(=O)CC(C)(C)C(=O)O)C(C)(C)C5CC[C@]43C)C12` (some centres unmarked) [Compound 131] yielded an IC50 of 3.5 nM.
